Results taken from patent US20110021619A1, “EXTERNAL PREPARATION FOR SKIN CONTAINING FLAVANONE DERIVATIVE” (priority 2006, published 2011).

Columns and labels:
Normal human fibroblasts [1] = test: Toxicity of farrerol on fibroblasts, MTT assay (WST-8); format: cell-based; details: 24, 48 and 72 hours after addition, any of the concentrations considered
Experimental: 1. Fibroblasts grown to 80% confluency were dispersed with 0.05% Trypsin/EDTA. The dispersant was seeded on 96 wells/plate at a concentration of 3×10^3 cells/well. 2. […] 3. […] 4. Absorbance was measured at a measurement wavelength of 450 nm and a reference wavelength of 650 nm.

Normal human fibroblasts [2] = test: Wound-healing model (punched three-dimensional collagen gel), behavior of fibroblasts; format: cell-based; details: 10^−6 ml/ml-DMEM farrerol, after 24 hours, vs farrerol-free group
From the text: 1) The culture of fibroblasts obtained by Protocol 4 of Example 1 and the collagen medium solution were mixed together at a ratio of 1:9 (volume) and then suspension-cultured in a 10%-FBS medium for 1 week.
2) When the size of a collagen gel was reduced from one at the time of being prepared by the addition of the collagen medium solution to a size of about ⅕ to 1/10, the center portion of the gel was punched out by a disposable biopsy punch with a diameter of 3 mm.
3) A 6-well plate was prepared and 15 μl of the collagen solution was then dropped on the center of the well. Subsequently, the punched three-dimensional collagen gel was mounted thereon and incubated for 10 minutes (37° C., 5% CO2).
4) When the dropped collagen was solidified and the three-dimensional collagen gel was attached to the bottom of the well, 10% FBS-DMEM, 0.1% heparin/10% FBS-DMEM, and 1.0% heparin/10% FBS-DMEM were added in a volume of 3 ml/well.

Normal human fibroblasts [3] = test: Model of defective dermal tissue with wound (punched collagen gel), Example 6; format: cell-based; details: FIG. 4
Experimental: The procedures will be described below. The results are represented in FIG. 4.
1) Normal human fibroblasts grown to 80% confluency were dispersed with 0.05% Trypsin/EDTA. The fibroblasts were seeded at a cell density of 3×10^5 cells/25 cm^2.
3) A collagen gel was prepared by adding a collagen medium solution to the culture obtained by culturing under each of the conditions in a manner similar to Example 2. The prepared collagen gel was then suspension-cultured for 1 week in the same medium as that of the culture condition of (2).
4) When the size of a collagen gel was reduced from one at the time of being prepared by the addition of the collagen medium solution to a size of about ⅕ to 1/10, the center portion of the gel was punched out in a donut form by a disposable biopsy punch with a diameter of 3 mm. As a result, a “wound model” was prepared.
5) A 6-well plate was prepared and 5 μl of collagen was then dropped on the center portion of the well. Subsequently, the collagen gel of the wound model was mounted thereon and incubated at 37° C. for 15 minutes.
6) When the dropped collagen was solidified and the gel was attached to the bottom of the well, 3 ml of the medium with the same condition as that of (3) was added, followed by culturing as a “model of defective dermal tissue with wound”. Subsequently, the process of closing up the wound area of the collagen gel was visually observed.

[4] = system: Normal human epidermal keratinocytes
Experimental: 1) Normal human epidermal keratinocytes grown to 80% confluency were dispersed with 0.05% Trypsin/EDTA. The dispersant was seeded on 96 wells/plate at a concentration of 3×10^3 cells/well and 6×10^3 cells/well.
4) Absorbance (OD value) was measured at a measurement wavelength of 450 nm and a reference wavelength of 650 nm.

Normal human fibroblasts [5] = test: Screening with wound model (punched collagen gel), Example 11; format: cell-based
Experimental: The fractions containing the single ingredients obtained as described above are provided as test substances and the effect of each test substance to construct collagen is then evaluated to screen the substance with a wound-healing effect. The specific procedures will be described later.
Using a “wound model” provided with a defect area formed by punching a collagen gel containing animal fibroblasts, the degree of filling or reduction of the defect area in the presence of a test substance will be observed. The procedures are as follows.
1) Normal human fibroblasts grown to 80% confluency in preculture were dispersed with 0.05% Trypsin/EDTA. The fibroblasts were then seeded on a plate at a cell density of 3×10^5 cells/25 cm^2 (1×10^4 cells/cm^2).
3) A collagen gel was prepared by adding a collagen medium solution to the obtained culture in a manner similar to Example 3. The fibroblasts in the collagen gel were cultured using the medium used in (2). The concentration of the test substance in the medium corresponded to the concentration of the medium of (2).
4) After culturing for 1 week, the size of a collagen gel was reduced from one at the time of being prepared by the addition of the collagen medium solution to a size of about ⅕ to 1/10. Subsequently, the center portion of the collagen gel was punched out in a donut form by a disposable biopsy punch with a diameter of 3 mm. As a result, a “wound model” was prepared.
5) A 6-well plate was prepared and 5 μl of the collagen solution was then dropped on the center portion of the well. Subsequently, the collagen gel of the wound model was mounted thereon and incubated at 37° C. for 15 minutes, allowing the collagen gel to be attached on the bottom of the well.
6) Subsequently, 3 ml of the same medium as that of (2) was added to each of the wells and the fibroblasts in the above-mentioned collagen gel was then cultured for 7 days. During the culture, the process of closing up the wound area of the collagen gel was visually observed.

[6] = system: Normal human epidermal keratinocytes; test: Cell proliferation effect of farrerol on keratinocytes (direct evaluation, cell count); format: cell-based; details: FIG. 7
Experimental: 3) After 24 hours, 48 hours, and 72 hours from the sample addition, the cells were dispersed with 0.05% Trypsin/EDTA and the number thereof was then counted by a blood cell counter. By the way, in Experiment 1, the evaluation for WST-8 was used as an indicator of the number of cells. Since such a method is provided for indirect evaluation of the number of cells by acting on […] in mitochondria, the present study directly count the number of cells.

[7] = system: epidermal keratinocytes and fibroblasts; test: Influence on fibroblasts through epidermal keratinocytes, amount of procollagen produced (PIP EIA); format: cell-based, human
Experimental: The method is based on one described in Eming SA et al., Hum. Gene. Ther., 9 (4), 529-39 (1998).
DAY 1: The cells are seeded on a 24-well plate at a cell density of 3×10^4 cells/well. […] DAY 7: The supernatant of the culture is collected.
DAY 3: The cells are seeded on a 24-well plate at a cell density of 2.5×10^4 cells/well. DAY 7: The plate is washed with PBS and the culture supernatant (900 μl) of the epidermal keratinocytes is then added, followed by culturing for 48 hours. DAY 9: The plate is washed with PBS and serum-free DMEM and the medium is then replaced with 500 μl of serum-free DMEM, followed by culturing for 2 hours. The supernatant of the culture is collected and the amount of procollagen in the centrifuged supernatant (15000 rpm, 5 sec.) was then measured depending on the method described below. […]
4) A standard curve was formed by plotting absorbance values at a wavelength of […] while the absorbance of the medium was set to zero as a reference. Then, the PIP concentration was read out from the corresponding absorbance of the test substance.

NHDF = test: Building of collagen fiber bundle in collagen gel with heparin, SEM observation; format: cell-based, human; details: 1% heparin at final, 5 days incubation, FIG. 3
Experimental: A collagen solution was prepared by mixture of 0.5% type-I collagen: 5×DMEM: 200 mM HEPES: 2.2% NaHCO3: 0.1 N NaOH: FBS: water at a ratio of 4:4:2:2:1:2:3 (performed while cooling).
A lower-layer collagen solution was prepared by mixing collagen solution with water at a ratio of 9 to 1.
The lower-layer collagen solution was dispensed into the respective wells of a 48-well plate in a volume of 100 μl/well.
The collagen solution was mixed with the cell suspension at a ratio of 9 to 1 (volume) and then dispensed into the respective wells in a volume of 300 μl/well.
The addition of 1.8% Heparin/10% FBS-DMEM was performed in a volume of 500 μl/well (1% Heparin/well at final).
Incubation was carried out in the CO2 incubator (5 days).
A sample for SEM observation was obtained.

`Cc1c(O)c(C)c2c(c1O)C(=O)CC(c1ccc(O)cc1)O2` (centres unmarked) [farrerol] was tested, and the cytotoxicity (Normal human fibroblasts [1]) was “Significant cytotoxicity could not be confirmed”, the “movement of fibroblasts from the wound area” value (Normal human fibroblasts [2]; 0.1% heparin/10% FBS-DMEM and 1.0% heparin/10% FBS-DMEM) was “no difference in cell movement” and the “movement of fibroblasts from the wound area” value (Normal human fibroblasts [2]; unsupplemented 10% FBS-DMEM, FIG. 2) was “longer movement distance of fibroblasts and a more active cellular movement”. For the same compound, the “reduction of punched hole size” value (Normal human fibroblasts [3]; final concentration of farrerol 10^−5 M) was “promoted clearly”, the “reduction of punched hole size” value (Normal human fibroblasts [3]; final concentration of farrerol 10^−6 M) was “promoted clearly” and the “promotion of reduction of punched hole size” value (Normal human fibroblasts [3]; final concentration of farrerol 10^−7 M) was “unclear”. For the same compound, the “OD value (450 nm)” value ([4]; dependence on concentration of farrerol, FIG. 5) was “increased depending on the concentration of farrerol”, the “OD value, reproducibility” value ([4]; doubled number of seeded cells, 6×10^3 cells/well) was “almost the similar result could be obtained” and the “degree of filling or reduction of the defect area” value (Normal human fibroblasts [5]; compared with the rest of the seven single-ingredient fractions of Hypericum erectum extract) was “highest degree of filling or reduction of the defect area”. For the same compound, the “concentration exerting a wound-healing promoting effect” value (Normal human fibroblasts [5]; effective concentration read from defect area reduction) was “at least 10^−6 M”, the “reduction of the punch hole (defect area)” value (Normal human fibroblasts [5]; final concentration of farrerol 10^−5 M, FIG. 9) was “distinctly promoted” and the “reduction of the punch hole (defect area)” value (Normal human fibroblasts [5]; final concentration of farrerol 10^−6 M, FIG. 9) was “distinctly promoted”. For the same compound, the “promotion of reduction of the punch hole (defect area)” value (Normal human fibroblasts [5]; final concentration of farrerol 10^−7 M, FIG. 9) was “obscure”, the cell shape [6] was “no change in cell shape” and the “amount of procollagen produced” value ([7]; another system: farrerol added at the time of culturing fibroblasts, then keratinocyte culture supernatant added) was “did not show a large change in amount of procollagen produced”. The “amount of procollagen produced” value ([7]; fibroblasts cultured 48 hours with supernatant of keratinocytes treated with farrerol 10^−6, 10^−7, 10^−8 M, FIG. 8) was “increased significantly depending on the concentration of farrerol” and the “building of a collagen fiber bundle” value (NHDF) was “prevents an inhibitory effect of heparin on the building of a collagen fiber bundle”.
